Experimental data taken from patent publication US11136562B2, “Conditionally active heterodimeric polypeptides and methods of use thereof” (The Regents of the University of California, priority 2016, dated 2021).
pEC50: −log10 of the molar value.

What was measured:
[1] = system: primary CD8+ T cells expressing a split ON-switch CAR (human Vitamin D receptor ligand binding domain / SRC2-3 coactivator peptide); test: T cell activation of primary CD8+ T cells expressing a split ON-switch CAR with human Vitamin D receptor LBD and SRC2-3 coactivator peptide; type: cell-based; settings: in the presence of the dimerizer
[2] = system: ER CAR+ Jurkat cells; test: CD69 upregulation by ER CAR+ Jurkat cells (bCW502 and bCW505) co-cultured with K562 target cells; type: cell-based, human
Description: A Jurkat cell line expressing Green Fluorescent Protein upon NFAT activation was used. The cell line was maintained in RPMI-1640 medium supplemented with 10% FBS and glutamine. K562 target cells (CD19+/−) were cultured in DMEM supplemented with 10% FBS. Jurkat cells infected with lentivirus with the CAR constructs were co-cultured with K562 target cells that expressed the target antigen (CD19) or an irrelevant antigen (mesothelin). 4-Hydroxytamoxifen (Sigma-Aldrich #H7904) was dissolved in DMSO and added to samples to a final concentration of 0-10 μM. The Rapalog A/C Heterodimerizer (Clontech Laboratories #635055) was dissolved in ethanol and added to a final concentration of 500 nM. The cells were cultured for 24 hours, stained for CD69 expression, and analyzed on a flow cytomter.
The data are depicted in FIG. 16A and FIG. 16B. FIG. 16A. CD69 upregulation by Jurkat cells expressing ER CAR+ (bCW502 and bCW505) after 24 hours of co-culturing with K562 target cells expressing CD19 or mesothelin, an irrelevant antigen (“meso”), in the presence or absence of a small-molecule dimerizer (4-hydroxytamoxifen or rapalog AP21967). […] Rapamycin CAR and dead rapamycin CAR (with a mutation in ITAM that abolishes signalling) were tested as positive and negative controls, respectively. FIG. 16B. […]

[3] = system: primary human CD8+ T cells expressing a CD19 specific ER-beta/CoRNR ON-switch CAR; test: CD69 upregulation by primary human CD8+ T cells expressing ER-beta/CoRNR ON-switch CAR co-cultured with K562 target cells; type: cell-based; settings: 24 hours co-culture with K562 cells expressing CD19, 4-hydroxytamoxifen 0-10 μM
Source text: A human estrogen receptor beta nuclear receptor-peptide system was expressed in primary human T cells and found to capable of modulating ON-switch CAR activity. A CD19 specific ON-switch CAR was constructed to include human estrogen receptor beta ligand binding domain and co-repressor peptide (CoRNR). A schematic representation of the general construct within the T cell membrane, and the associated CD19 antigen expressed on the surface of the target cell, is provided in FIG. 17.
Specifically, CD69 upregulation by primary human CD8+ T cells expressing a CD19 specific ON-switch CAR constructed to include human estrogen receptor beta ligand binding domain (ER-beta) and co-repressor peptide (CoRNR) was measured after 24 hours of co-culturing with K562 target cells expressing CD19 or mesothelin, an irrelevant antigen (“meso”), in the presence or absence of a small-molecule dimerizer (4-hydroxytamoxifen or rapalog “rapa”).

[4] = system: CD19-expressing K562 target cells; test: Target cell killing by primary human CD8+ T cells expressing the CD19 specific ER-beta/CoRNR ON-switch CAR; type: cell-based; settings: 22 hours co-culture; percent of CD19-expressing K562 target cells remaining; various drug concentrations
Description: Cell killing by primary human CD8+ T cells expressing the CD19 specific ER-beta/CoRNR ON-switch CAR was also assessed. Specifically, the percent of CD19-expressing K562 target cells remaining after 22 hours of co-culture with primary human CD8+ T cells expressing the CD19 specific ER-beta/CoRNR ON-switch CAR (ER-CAR) in the presence of various concentrations of drug (4-hydroxytamoxifen (4HT) or rapalog) was measured (FIG. 52). Cells expressing a CD19 specific single-chain second generation CAR (“2nd gen CAR”) and cells expressing a CD19 specific rapalog on-switch CAR, with administered rapalog dimerizer, were used as positive controls. Negative controls included cells expressing ER-CAR T cells in absence of 4HT (ethanol vehicle only, “ER-CAR+EtOH”) and cells expressing only part 2 of the ER-CAR on-switch construct, i.e., without part 1, in the presence of 4HT.

Row | Molecule | T cell activation [1] | pEC50 ([2]; 24 hours co-culture with K562 cells expressing CD19, flow cytometry, read-out: EC50 of CD69 expression induction) | CD69 expression in ER CAR+ Jurkat cells ([2]; 24 hours co-culture, only in the presence of K562 cells expressing CD19, not the irrelevant antigen mesothelin) | T cell activation (CD69 upregulation) of primary human CD8+ T cells [3] | T cell activation (CD69 upregulation) of primary human CD8+ T cells ([3]; listed as 4-hyroxytamoxifen) | target cell killing (cytotoxic activity) [4]
1 | C=C1/C(=C\C=C2/CCC[C@]3(C)[C@@H]([C@H](C)/C=C/[C@@H](O)C4CC4)CC[C@@H]23)C[C@@H](O)C[C@@H]1O [calcipotriol] | increased activation | – | – | – | – | –
2 | 4-Hydroxytamoxifen | – | ~7.00 | strongly induced | increasing numbers of CD69 positive primary human CD8+ T cells | increased T cell activation | inducible target cell killing
